{"source": "patent US20040265381A1", "about": "“Anti-asthmatic drug (asmakure) from indigenous herbs to cure the disease asthma” (priority 2001, published 2004)", "origin": "cited, not measured here", "data": [{"compound": "CCN(CC)CC#CCOC(=O)C(O)(c1ccccc1)C1CCCCC1.Cl", "note": "(stereo not drawn) [Oxybutynin, α-cyclohexyl-α-hydroxybenzeneacetic acid 4-(diethylamino)-2-butynyl ester hydrochloride]", "values": [{"measurement": "start of pharmacological action", "setting": "following oral administration", "value": "within one hour"}, {"measurement": "half-life", "setting": "in vivo", "value": "less than 2 hours"}]}]}
